Results published in ChEMBL document CHEMBL4177660, “Discovery of furan and dihydrofuran-fused tricyclic benzo[d]imidazole derivatives as potent and orally efficacious microsomal prostaglandin E synthase-1 (mPGES-1) inhibitors: Part-1” (Bioorg Med Chem Lett, 2017).
Converted amounts (≈) assume the structure as drawn.

Experiments:
[1] = Intrinsic solubility of the compound; assay type: physicochemical
[2] = Ratio of drug level in Sprague-Dawley rat brain to plasma; assay type: ADME, cell-free; conditions: brain and plasma, read-out: BPR
[3] = Permeability of the compound by PAMPA; assay type: ADME; conditions: read-out: permeability
[4] = Solubility of the compound in DMSO; assay type: physicochemical
[5] = Solubility of the compound in FaSSIF at pH 6; assay type: physicochemical
[6] = Solubility of the compound in FeSSIF at pH 5.2; assay type: physicochemical
[7] = Solubility of the compound in acetate buffer at pH 4.5; assay type: physicochemical
[8] = Solubility of the compound in 0.1N HCl; assay type: physicochemical
Rattus norvegicus [9] = experiment: Cmax in Sprague-Dawley rat at 10 mg/kg, po; assay type: ADME, organism-based; set-up: dose 10 mg/kg, route oral; conditions: in vivo
Rattus norvegicus [10] = experiment: AUC (0 to 24 hrs) in Sprague-Dawley rat at 10 mg/kg, po; assay type: ADME, organism-based; set-up: time < 24 hr, dose 10 mg/kg, route oral; conditions: in vivo
Rattus norvegicus [11] = experiment: Tmax in Sprague-Dawley rat at 10 mg/kg, po; assay type: ADME, organism-based; conditions: in vivo
[12] = Oral bioavailability in Sprague-Dawley rat at 10 mg/kg; assay type: ADME, organism-based; conditions: in vivo
[13] = Cmax in Sprague-Dawley rat at 30 mg/kg, po; assay type: ADME, organism-based; set-up: dose 30 mg/kg, route oral; conditions: in vivo
[14] = AUC (0 to 24 hrs) in Sprague-Dawley rat at 30 mg/kg, po; assay type: ADME, organism-based; set-up: time < 24 hr, dose 30 mg/kg, route oral; conditions: in vivo
[15] = Tmax in Sprague-Dawley rat at 30 mg/kg, po; assay type: ADME, organism-based; conditions: in vivo
[16] = Oral bioavailability in Sprague-Dawley rat at 30 mg/kg; assay type: ADME, organism-based; conditions: in vivo
[17] = Cmax in Sprague-Dawley rat at 100 mg/kg, po; assay type: ADME, organism-based; set-up: dose 100 mg/kg, route oral; conditions: in vivo
[18] = AUC (0 to 24 hrs) in Sprague-Dawley rat at 100 mg/kg, po; assay type: ADME, organism-based; set-up: dose 100 mg/kg, time < 24 hr, route oral; conditions: in vivo
[19] = Tmax in Sprague-Dawley rat at 100 mg/kg, po; assay type: ADME, organism-based; conditions: in vivo
[20] = Cmax in Dunkin-Hartley guinea pig at 10 mg/kg, po; assay type: ADME, organism-based, Cavia porcellus; set-up: dose 10 mg/kg, route oral; conditions: in vivo
[21] = AUC (0 to 24 hrs) in Dunkin-Hartley guinea pig at 10 mg/kg, po; assay type: ADME, organism-based, Cavia porcellus; set-up: time < 24 hr, dose 10 mg/kg, route oral; conditions: in vivo
[22] = Tmax in Dunkin-Hartley guinea pig at 10 mg/kg, po; assay type: ADME, organism-based, Cavia porcellus; conditions: in vivo
[23] = Cmax in Dunkin-Hartley guinea pig at 30 mg/kg, po; assay type: ADME, organism-based, Cavia porcellus; set-up: dose 30 mg/kg, route oral; conditions: in vivo
[24] = AUC (0 to 24 hrs) in Dunkin-Hartley guinea pig at 30 mg/kg, po; assay type: ADME, organism-based, Cavia porcellus; set-up: dose 30 mg/kg, time < 24 hr, route oral; conditions: in vivo
[25] = Tmax in Dunkin-Hartley guinea pig at 30 mg/kg, po; assay type: ADME, organism-based, Cavia porcellus; conditions: in vivo
[26] = Cmax in Dunkin-Hartley guinea pig at 100 mg/kg, po; assay type: ADME, organism-based, Cavia porcellus; set-up: dose 100 mg/kg, route oral; conditions: in vivo
[27] = AUC (0 to 24 hrs) in Dunkin-Hartley guinea pig at 100 mg/kg, po; assay type: ADME, organism-based, Cavia porcellus; set-up: time < 24 hr, dose 100 mg/kg, route oral; conditions: in vivo
[28] = Tmax in Dunkin-Hartley guinea pig at 100 mg/kg, po; assay type: ADME, organism-based, Cavia porcellus; conditions: in vivo
[29] = Cmax in Beagle dog at 10 mg/kg, po; assay type: ADME, organism-based, Canis lupus familiaris; set-up: dose 10 mg/kg, route oral; conditions: in vivo
[30] = AUC (0 to 24 hrs) in Beagle dog at 10 mg/kg, po; assay type: ADME, organism-based, Canis lupus familiaris; set-up: time < 24 hr, dose 10 mg/kg, route oral; conditions: in vivo
[31] = Tmax in Beagle dog at 10 mg/kg, po; assay type: ADME, organism-based, Canis lupus familiaris; conditions: in vivo
[32] = Cmax in cynomolgus monkey at 10 mg/kg, po; assay type: ADME, organism-based, Macaca fascicularis; set-up: dose 10 mg/kg, route oral; conditions: in vivo
[33] = AUC (0 to 24 hrs) in cynomolgus monkey at 10 mg/kg, po; assay type: ADME, organism-based, Macaca fascicularis; set-up: dose 10 mg/kg, time < 24 hr, route oral; conditions: in vivo
[34] = Tmax in cynomolgus monkey at 10 mg/kg, po; assay type: ADME, organism-based, Macaca fascicularis; conditions: in vivo
[35] = Oral bioavailability in cynomolgus monkey at 10 mg/kg; assay type: ADME, organism-based, Macaca fascicularis; conditions: in vivo
Cynomolgus monkey = experiment: Apparent volume of distribution in cynomolgus monkey at 10 mg/kg, po; assay type: ADME, organism-based, Macaca fascicularis; conditions: in vivo
[36] = Drug level in Sprague-Dawley rat brain; assay type: ADME, tissue-based; conditions: in vivo
[37] = Drug level in Sprague-Dawley rat plasma; assay type: ADME, cell-free
[38] = Plasma concentration in Dunkin-Hartley guinea pig model of LPS-induced thermal hyperalgesia at 3 mg/kg, po pretreated for 4 hrs followed by LPS challenge measured at […] post dose; assay type: ADME, organism-based, Cavia porcellus
[39] = Plasma concentration in Dunkin-Hartley guinea pig model of LPS-induced thermal hyperalgesia at 10 mg/kg, po pretreated for 4 hrs followed by LPS challenge measured at […] post dose; assay type: ADME, organism-based, Cavia porcellus
[40] = Plasma concentration in Dunkin-Hartley guinea pig model of LPS-induced thermal hyperalgesia at 30 mg/kg, po pretreated for 4 hrs followed by LPS challenge measured at […] post dose; assay type: ADME, organism-based, Cavia porcellus
Rattus norvegicus [41] = experiment: Apparent volume of distribution in Sprague-Dawley rat at 1 mg/kg, iv; conditions: in vivo

CC1(C)Cc2c(c(C(=O)Nc3ccc(C(F)(F)F)cc3)cc3nc(Nc4c(F)cccc4Cl)[nH]c23)O1
solubility [1]: Soluble | Kp [2]: 0.22 | Papp [3]: 0.13 ×10⁻⁶ cm/s | solubility [4]: 25000 µg/mL (≈ 48200 µM) | solubility [5]: 0.9 µg/mL (≈ 1.73 µM) | solubility [6]: 0.6 µg/mL (≈ 1.16 µM) | solubility [7]: Insoluble | solubility [8]: 0.2 µg/mL (≈ 0.385 µM) | Cmax (Rattus norvegicus [9]): 546 ng/mL | AUC (Rattus norvegicus [10]): 6505 ng·h/mL | Tmax (Rattus norvegicus [11]): 2 h | bioavailability [12]: 100% | Cmax [13]: 2530 ng/mL | AUC(0-t) at 24 h [14]: 32400 ng·h/mL | Tmax [15]: 2 h | bioavailability [16]: 100% | Cmax [17]: 5550 ng/mL | AUC(0-t) at 24 h [18]: 108000 ng·h/mL | Tmax [19]: 8 h | Cmax [20]: 426 ng/mL | AUC(0-t) at 24 h [21]: 5080 ng·h/mL | Tmax [22]: 4 h | Cmax [23]: 742 ng/mL | AUC(0-t) at 24 h [24]: 11600 ng·h/mL | Tmax [25]: 4 h | Cmax [26]: 736 ng/mL | AUC(0-t) at 24 h [27]: 11700 ng·h/mL | Tmax [28]: 2 h | Cmax [29]: 1090 ng/mL | AUC(0-t) at 24 h [30]: 22000 ng·h/mL | Tmax [31]: 12 h | Cmax [32]: 908 ng/mL | AUC(0-t) at 24 h [33]: 16700 ng·h/mL | Tmax [34]: 6 h | bioavailability [35]: 78% | Vz (Cynomolgus monkey): 1.67 L/kg | Drug uptake [36]: 58.9 ng/mL | Cp [37]: 268.9 ng/mL | concentration at […] [38]: 43 ng/mL | concentration at […] [39]: 116 ng/mL | concentration at […] [40]: 371 nM | Vz (Rattus norvegicus [41]): 3.59 L/kg

CC1(C)Cc2c(c(C(=O)NCC(F)(F)C(F)(F)F)cc3nc(Nc4c(Cl)cccc4Cl)[nH]c23)O1
solubility [1]: Soluble

CC1(C)Cc2c(c(C(=O)Nc3ccc(F)cc3)cc3nc(Nc4c(Cl)cccc4Cl)[nH]c23)O1
solubility [1]: Soluble

CC1(C)Cc2c(c(C(=O)Nc3ccc(F)c(C(F)(F)F)c3)cc3nc(Nc4c(Cl)cncc4Cl)[nH]c23)O1
solubility [1]: Soluble

CC1(C)Cc2c(c(C(=O)NCC3CC3)cc3nc(Nc4c(Cl)cncc4Cl)[nH]c23)O1
solubility [1]: Soluble

CC1(C)Cc2c(c(C(=O)Nc3ccccc3)cc3nc(Nc4c(Cl)cccc4Cl)[nH]c23)O1
solubility [1]: Soluble

CC1(C)Cc2c(c(C(=O)Nc3ccc(OC(F)F)nc3)cc3nc(Nc4c(F)cccc4Cl)[nH]c23)O1
solubility [1]: Soluble

CC1(C)Cc2c(c(C(=O)NC3CCC(F)(F)CC3)cc3nc(Nc4c(Cl)cccc4Cl)[nH]c23)O1
solubility [1]: Soluble

COc1ccc(NC(=O)c2cc3nc(Nc4c(Cl)cccc4Cl)[nH]c3c3c2OC(C)(C)C3)cn1
solubility [1]: Soluble

CC1(C)Cc2c(c(C(=O)NCC3CCCCC3)cc3nc(Nc4c(Cl)cncc4Cl)[nH]c23)O1
solubility [1]: Soluble

Cc1cc2c(o1)c(C(=O)Nc1ccc(C(F)(F)F)cc1)cc1nc(Nc3c(Cl)cncc3Cl)[nH]c12
solubility [1]: Insoluble

CC1(C)Cc2c(c(C(=O)NCC3CC3)cc3nc(Nc4c(Cl)cccc4Cl)[nH]c23)O1
solubility [1]: Soluble

CC1(C)Cc2c(c(C(=O)Nc3ccc(C(F)(F)F)cc3)cc3nc(Nc4c(Cl)cccc4Cl)[nH]c23)O1
solubility [1]: Soluble | solubility [4]: 20000 µg/mL (≈ 37400 µM) | solubility [5]: 0.3 µg/mL (≈ 0.56 µM) | solubility [6]: 0.6 µg/mL (≈ 1.12 µM) | solubility [7]: Insoluble | solubility [8]: 0.1 µg/mL (≈ 0.187 µM)

CC1(C)Cc2c(c(C(=O)Nc3ccc(Cl)cn3)cc3nc(Nc4c(F)cccc4Cl)[nH]c23)O1
solubility [1]: Soluble

CC1(C)Cc2c(c(C(=O)NCC3CCCC3)cc3nc(Nc4c(Cl)cccc4Cl)[nH]c23)O1
solubility [1]: Soluble

CC1(C)Cc2c(c(C(=O)Nc3ccc(F)cc3)cc3nc(Nc4c(F)cccc4Cl)[nH]c23)O1
solubility [1]: Soluble

CC1(C)Cc2c(c(C(=O)Nc3cccc(C4CC4)c3)cc3nc(Nc4c(F)cccc4Cl)[nH]c23)O1
solubility [1]: Soluble

Cc1cc2c(o1)c(C(=O)Nc1ccc(C(F)(F)F)cc1)cc1nc(Nc3c(Cl)cccc3Cl)[nH]c12
solubility [1]: Insoluble

CC1(C)Cc2c(c(C(=O)Nc3ccc(C(F)(F)F)cc3F)cc3nc(Nc4c(Cl)cncc4Cl)[nH]c23)O1
solubility [1]: Soluble

Cc1cc2c(o1)c(C(=O)Nc1cccc(C(F)(F)F)c1)cc1nc(Nc3c(Cl)cccc3Cl)[nH]c12
solubility [1]: Insoluble

Cc1ccc(NC(=O)c2cc3nc(Nc4c(Cl)cccc4Cl)[nH]c3c3c2OC(C)(C)C3)c(C)n1
solubility [1]: Soluble

CC1(C)Cc2c(c(C(=O)Nc3ccc(C4CC4)cc3)cc3nc(Nc4c(F)cccc4Cl)[nH]c23)O1
solubility [1]: Soluble

CC1(C)Cc2c(c(C(=O)NCC(F)(F)F)cc3nc(Nc4c(Cl)cccc4Cl)[nH]c23)O1
solubility [1]: Soluble

CC1(C)Cc2c(c(C(=O)Nc3ccc(C(F)(F)F)nc3)cc3nc(Nc4c(Cl)cccc4Cl)[nH]c23)O1
solubility [1]: Soluble

CC1(C)Cc2c(c(C(=O)NC3CCCCC3)cc3nc(Nc4c(Cl)cncc4Cl)[nH]c23)O1
solubility [1]: Soluble

CC1(C)Cc2c(c(C(=O)Nc3ccc(C(F)(F)F)cc3)cc3nc(Nc4c(Cl)cncc4Cl)[nH]c23)O1
solubility [1]: Soluble
